Source: publication PMC4835124 (Drug Design, Development and Therapy, 2016)
Like-named read-outs stand apart in the source and are kept apart here.

How the values were obtained:
[1] = single administration in healthy volunteers; cited from earlier work
[2] = Comparative pharmacokinetic study; details: for CL/F: fasting, n=35, mean ± SD; for Tmax: po
Food effect study = type: in vivo, human; details: for CL/F: Part 2, FDC_EVO5/MET1000 single oral dose, n=27, mean ± SD
[3] = multiple dosing, 5–20 mg dose range, healthy volunteers; cited from earlier work
[4] = Part 1, EVO+MET (individual tablets) single oral dose
[5] = Part 1, FDC_EVO5/MET1000 single oral dose, plasma

Q: Which “effect of food on pharmacokinetics” value [1] does the source give for `CC(C)(C)OC[C@@H]1C(=O)NCCN1C(=O)C[C@H](N)Cc1cc(F)c(F)cc1F` [Evogliptin, evogliptin] here?
A: not affected by food

Q: And the half-life [1]?
A: ≥ 30 h

Q: And the CL/F [2, 4]?
A: 28.56 ± 8.64 L/h

Q: And the CL/F [2, 5]?
A: 28.81 ± 9.19 L/h

Q: What about the Tmax ([2]; male, human, in vivo) of the same compound?
A: 5 h

Q: What about the half-life ([2]; male, human, in vivo, terminal half-life, present study) of the same compound?
A: > 24 h

Q: What about the “intrasubject variability in CL/F” value ([2]; present study) of the same compound?
A: around 10.0%

Q: And the CL/F (Food effect study; Fasted)?
A: 25.05 ± 6.68 L/h

Q: And the CL/F (Food effect study; Fed)?
A: 23.76 ± 5.07 L/h

Q: And the “effect of food on pharmacokinetics” value (Food effect study; single oral dose of FDC_EVO5/MET1000, fed vs fasted)?
A: did not significantly affect

Q: What about the “dose linearity of pharmacokinetics” value [3] of the same compound?
A: linear pharmacokinetics

Q: With `CN(C)C(=N)N=C(N)N` [Metformin, metformin] as the compound, how does the CL/F [2, 4] read?
A: 126.15 ± 35.21 L/h

Q: What about the CL/F [2, 5] of the same compound?
A: 126.82 ± 38.28 L/h

Q: What about the Tmax ([2]; male, human, in vivo) of the same compound?
A: 4 h

Q: What about the “increase of AUClast under the fed condition compared to the fasted condition” value (Food effect study; FDC_EVO5/MET1000 single oral dose) of the same compound?
A: 36%–60%

Q: And the CL/F (Food effect study; Fasted)?
A: 112.95 ± 28.61 L/h

Q: What about the CL/F (Food effect study; Fed) of the same compound?
A: 78.76 ± 20.56 L/h
